# Measured values published in PubChem BioAssay AID1159557 (GlaxoSmithKline (GSK), 2015).
# Activity calls are given as the source filed them. No rule for the calls is given here.
# Tested on: Trypanosoma brucei growth inhibition
# Assay: T. brucei growth inhibition (AID 1159557);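 also: parasites exposed to compound for 48 h before the resazurin readout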
row,SMILES,IC50
1,Cc1ccnc(NS(=O)(=O)c2ccc(NC(=O)c3ccc([N+](=O)[O-])s3)cc2)n1,0.2 µM
2,O=c1[nH]c(NCCCNCc2cc(Br)cc(Br)c2)nc2ccsc12,0.1 µM
3,CCn1nccc1CN(C)C(=O)C=Cc1ccc(Cl)cc1,32 µM
4,CNc1cc(C)nc(C2CN(C(=O)c3n[nH]c4ccccc34)CCO2)c1 (stereo not drawn),20 µM
5,COCCn1c(-c2ccc3c(c2)OCO3)cnc1NCc1ccccc1OC,20 µM
6,CS(=O)(=O)NC1CCC(Oc2cc3cnccc3cc2-c2ccsc2)CC1 (stereo not drawn),16 µM
7,Cc1nc(N2CCC(C(=O)N3CCC(O)(c4cccnc4)CC3)CC2)nc2ccc(C(C)C)cc12,20 µM
8,COc1ccc(NS(=O)(=O)c2cc(-c3cc(C)[nH]n3)ccc2C)cc1OC,0.32 µM
9,O=C(NCCc1cccnc1)c1csc(-c2ccccc2)n1,25 µM
10,Cc1nc(-c2nc(NCc3ccc(Cl)cc3)c3cccnc3c2O)n[nH]1,0.63 µM
11,Cc1cc2ncn(-c3ccc([N+](=O)[O-])cc3C#N)c2cc1C,20 µM
12,N#Cc1cc(-c2ccnc(Nc3cccc(CN4CCOCC4)c3)n2)ccc1NCCN,0.4 µM
13,O=C(Cc1ccccc1)Nc1ccccc1C(=O)Nc1nccs1,0.25 µM
14,CC1=C(C(=O)Nc2ccc(Cl)cc2)C(c2ccncc2)n2ncc(C(=O)Nc3ccccc3)c2N1 (stereo not drawn),3.2 µM
15,CC(=O)Nc1ccc(-c2noc(CC3CCCN(Cc4cccc(F)c4C)C3)n2)cc1 (stereo not drawn),20 µM
16,COc1ccc(NC(=O)c2ccc(NC(=O)CN(c3ccccc3C)S(C)(=O)=O)cc2)cc1,0.2 µM
17,CCOc1ccccc1C(=O)Nc1nnc(-c2ccc3c(c2)OCO3)s1,> 40 µM (inactive)
18,COc1cccc(S(=O)(=O)Nc2ccc3c(c2)CC(N2CCC(NC(=O)C4CC4)CC2)C3)c1 (stereo not drawn),1 µM
19,CCc1cccc(-n2nc(OCC(=O)NC3CCCC3)c3cccnc32)c1,> 40 µM (inactive)
20,N#Cc1ccc(Br)cc1[N+](=O)[O-],0.16 µM
21,CCC(CC)C(=O)Nc1cccc(C(=O)Nc2nnc(C3CCCCC3)s2)c1,0.25 µM
22,CNS(=O)(=O)c1ccccc1Nc1nc(Nc2ccnn2C)ncc1Cl,0.063 µM

row,SMILES,IC50
1,CCN(CC)S(=O)(=O)c1ccc(C)c(NC(=O)c2cc(Cl)c3c(c2)OCO3)c1,0.32 µM
2,c1cncc(CN(Cc2ccco2)Cc2cn[nH]c2-c2cccs2)c1,25 µM
3,O=S(=O)(NCC(c1cccnc1)N1CCN(c2ccc(F)cc2)CC1)c1cccs1 (stereo not drawn),> 40 µM (inactive)
4,COc1ccc(C(=O)Nc2cc(C(F)(F)F)ccc2N2CCOCC2)c(OC)c1,10 µM
5,NCc1csc(Nc2cc(Oc3ccccc3)ncn2)n1,0.63 µM
6,O=C(NNC(=O)c1ccccn1)c1ccc(-c2ccccc2)cc1,0.32 µM
7,O=C(Nc1ccc(C(F)(F)F)cc1)Nc1cccc([N+](=O)[O-])c1,2 µM
8,Cc1ccc(NC(=O)c2ccnc(N3CCCC3)c2)cc1-c1cc(C(N)=O)ccc1C,0.1 µM
9,O=C(NCc1nnc2n1CCCCC2)c1csc(-c2ccccc2)n1,0.32 µM
10,Clc1cc(Br)ccc1OCCCCn1ccnc1,10 µM
11,Cc1nc(-c2ccc3c(c2)OCO3)sc1C(=O)NCc1ccc2c(c1)OCO2,10 µM
12,COc1cc(Cl)c(C)cc1NC(=O)c1ccc([N+](=O)[O-])s1,0.5 µM
13,Cc1ccc(S(=O)(=O)Nc2ccc(CN3CCN(C(=O)c4cccc(C#N)c4)CC3)cc2)cc1,0.16 µM
14,CC1CN(Cc2ccc(C#N)cc2)CCN1c1ccc(NC(=O)c2ccccc2F)cc1 (stereo not drawn),> 40 µM (inactive)
15,CCS(=O)(=O)Nc1ccc(C2=NN(C(=O)c3cccs3)C(c3ccccc3OC)C2)cc1 (stereo not drawn),5 µM
16,COc1cc(OC)cc(C(NS(=O)(=O)c2ccc(Cl)c(C(F)(F)F)c2)c2nccn2C)c1 (stereo not drawn),7.9 µM
17,N#Cc1cnc(Nc2cccc(CCN3CCOCC3)c2)nc1Nc1ccccc1C(N)=O,0.063 µM
18,O=c1cc(CSc2ccc(Cl)cc2)nc(-c2ccccn2)[nH]1,0.79 µM
19,Cc1[nH]n2c(=O)c3c(nc2c1-c1ccc(Cl)cc1)CCCC3,0.16 µM
20,O=[N+]([O-])c1ccc(-c2nnn(-c3ccc(Cl)cc3)n2)o1,0.32 µM
21,CCOc1ccc(CC(=O)N2c3ccccc3CC2C(=O)NC)cc1 (stereo not drawn),0.5 µM
22,Cc1ccc(Nc2nc(N)nc(CNC(c3nc4ccccc4[nH]3)C(C)C)n2)cc1 (stereo not drawn),7.9 µM

row,SMILES,IC50
1,O=C(NCc1ccc(Cl)cc1)C1CN(C(=O)c2ccc(F)cc2)CCS1 (stereo not drawn),0.79 µM
2,O=c1ccc2ccc(F)c3c2n1C[C@H]3CN1CCN(CC(O)c2cc3c(cn2)OCS3)CC1 (stereo partly drawn),0.2 µM
3,Cc1cc(C#N)c([N+](=O)[O-])cc1Br,0.79 µM
4,O=C(CSc1nnc(-c2ccc3c(c2)OCO3)o1)N(Cc1ccco1)CC(F)(F)F,> 40 µM (inactive)
5,Clc1ccc(C(CC2CCCCO2)Cn2cncn2)c(Cl)c1 (stereo not drawn),> 40 µM (inactive)
6,CNC(=O)C1Cc2ccccc2N1C(=O)Cc1ccccc1 (stereo not drawn),0.63 µM
7,CS(=O)(=O)c1cccc(-c2cnc(N)c3c(-c4ccc(CO)cc4)csc23)c1,2 µM
8,CN1CCN(c2nc(-c3ccc(Cl)cc3)c3c(N)n(C)nc3n2)CC1,13 µM
9,COc1ccc(Cl)cc1CC(=O)Nc1n[nH]c(-c2ccccn2)n1,16 µM
10,CCC1Oc2cc(S(=O)(=O)N(C)CC(=O)N3CCc4ccccc4C3)c(C)cc2NC1=O (stereo not drawn),25 µM
11,CNc1cc(Cn2c(C(=O)c3cc(C)cc(Cl)c3)c(C(C)C)c(=O)[nH]c2=O)ccn1,25 µM
12,O=c1cc(NCCCNC2CCOc3c(I)cc(Cl)cc32)[nH]c2ccccc12 (stereo not drawn),0.01 µM
13,CCCCCNC(=O)c1c[nH]c2ccc(S(=O)(=O)N(C)c3ccc(OCC)cc3)cc2c1=O,0.32 µM
14,CCCc1nc2nc(N)nc(N)c2cc1CC,20 µM
15,Nc1nccc(-c2csc(Nc3ccc(Cl)cc3)n2)n1,> 40 µM (inactive)
16,CC(C)(C)C(=O)NCCc1csc(-c2ccc(F)cc2)n1,0.63 µM
17,O=C(CN(c1cccc(C(F)(F)F)c1)S(=O)(=O)c1ccc(Cl)cc1)NCc1ccc(F)c(F)c1,10 µM
18,O=C1CCCCCC1(Cc1cnc[nH]1)c1ccc(Cl)cc1Cl (stereo not drawn),> 40 µM (inactive)
19,Cn1nccc1-c1cc(OC(CN)c2ccccc2)cnc1-c1ccco1 (stereo not drawn),13 µM
20,Cc1ccc(S(=O)(=O)Nc2ccc(CN3CCN(C(=O)c4cccc(C)c4)CC3)cc2)cc1,0.25 µM
21,Cc1cccc(NS(=O)(=O)c2cnc3sc(C)cn3c2=O)c1,> 40 µM (inactive)
22,O=C(c1ccccc1)N1CCC(C(=O)N2CCC(Oc3ccccc3Cl)CC2)CC1,0.5 µM

row,SMILES,IC50
1,CN(C)Cc1ccc(-c2ccc(S(=O)(=O)NCC3CCCO3)c(F)c2)cc1 (stereo not drawn),25 µM
2,O=C(NCCc1cccnc1)c1ccc(-c2ccccc2F)o1,32 µM
3,Cc1nc(C(=O)Nc2ccc3c(c2)OCO3)nn1-c1ccc(Cl)cc1,> 40 µM (inactive)
4,O=C(NCC(c1cccs1)N1CCOCC1)c1ccc([N+](=O)[O-])o1 (stereo not drawn),0.32 µM
5,CNc1cncc(C2CCCN2C(=O)Cc2coc3cc(C)ccc23)n1 (stereo not drawn),> 40 µM (inactive)
6,COc1cccc(-c2cc(C(F)(F)F)nc(-n3ccc([N+](=O)[O-])n3)n2)c1,32 µM
7,CCOC(=O)c1noc(N)c1-c1ccccc1,0.63 µM
8,O=c1[nH]cnc2c([C@@H]3O[C@H](CO)[C@@H](O)[C@H]3O)[nH]nc12,0.0032 µM
9,Cc1sc(C)c(C(F)(F)F)c1CNCCCNc1cc(=O)c2ccccc2[nH]1,0.01 µM
10,Cc1nc(C(=O)Nc2ccc3c(c2)OCO3)nn1-c1ccc(F)cc1,> 40 µM (inactive)
11,CN(Cc1ccc(F)cc1)c1ccc(OCC(=O)N2CCCCC2c2cccnc2)nn1 (stereo not drawn),> 40 µM (inactive)
12,CN(C)CCOc1ccc(N2CCN(S(=O)(=O)c3ccc(Cl)cc3)CC2)cc1,20 µM
13,C=CCn1nc([N+](=O)[O-])nc1Oc1ccc(Cl)cc1Cl,20 µM
14,Clc1ccc(OCCN2CCCCC2c2cccnc2)c(Cl)c1 (stereo not drawn),32 µM
15,Cc1nc2c(-c3nc(-c4ccc(N)cc4)n[nH]3)cccn2c1C,13 µM
16,COc1ccccc1C1CC(c2ccc(NS(C)(=O)=O)cc2)=NN1C(=O)c1cccs1 (stereo not drawn),16 µM
17,COc1ccc(C(=O)[C@H]2C[C@@H]2CN(Cc2ccccn2)Cc2ccccn2)cc1,6.3 µM
18,CNC(=O)C1Cc2ccccc2N1C(=O)Cc1ccc(F)cc1 (stereo not drawn),0.25 µM
19,O=C(Nc1nccs1)c1ccccc1Cn1cc([N+](=O)[O-])cn1,0.32 µM
20,CCOc1ccc(OCC(=O)N2c3ccccc3CC2C(=O)NC)cc1 (stereo not drawn),0.5 µM
21,CCOc1cc(NCCCN2CCN(C)CC2)c2ncccc2c1,13 µM
22,Cc1ccc(NC(=O)c2ccc([N+](=O)[O-])s2)cc1S(=O)(=O)N1CCOCC1,0.25 µM

row,SMILES,IC50
1,CCN(CC)c1nc(Nc2ccncc2)nc2ccccc12,2.5 µM
2,NC(=O)c1ccccc1Nc1nc(NC2CCCCC2)nc2[nH]ccc12,0.5 µM
3,O=[N+]([O-])c1ccc(-c2nnn(-c3cccnc3)n2)o1,0.32 µM
4,COc1ccc(S(=O)(=O)Nc2ccccc2OC)cc1NC(=O)CCCc1c[nH]c2ccccc12,13 µM
5,CS(=O)(=O)NC1CCC(Nc2ncc(Br)c(Nc3ccccc3C(N)=O)n2)CC1 (stereo not drawn),0.16 µM
6,O=C(COc1nn(-c2ccccc2)c2ncccc12)NCc1ccccc1,> 40 µM (inactive)
7,CCN(CC)S(=O)(=O)c1ccc(C(=O)Nc2cc(C)nn2-c2nc(C)c(C)c(=O)[nH]2)cc1,0.32 µM
8,COc1ccc(NS(=O)(=O)c2cc(NC(=O)c3ccc([N+](=O)[O-])s3)ccc2OC)cc1,0.05 µM
9,Cc1ccc(S(=O)(=O)Cn2nnnc2C(c2cccnc2)N2CCN(c3ccccc3)CC2)cc1 (stereo not drawn),32 µM
10,N#CN1CC[C@@H](NC(=O)Nc2ccccc2Oc2ccccc2)C1,1 µM
11,O=C1CN(Cc2ccco2)C2CS(=O)(=O)CC2N1c1ccc(Cl)cc1 (stereo not drawn),0.32 µM
12,O=C(Nc1nc(-c2ccccn2)cs1)c1ccccc1-n1cnnn1,0.63 µM
13,CCN(CC)c1ccc(S(=O)(=O)N(CC)CC)c2nonc12,25 µM
14,Cc1c([N+](=O)[O-])c(C(=O)Nc2sc3c(c2C#N)CCC(C)C3)nn1C (stereo not drawn),> 40 µM (inactive)
15,CCN(Cc1nc2ccc(C(=O)N3CCN(c4ncccn4)CC3)cc2[nH]1)C1CCCc2cccnc21 (stereo not drawn),2.5 µM
16,O=C(NCC(c1cccnc1)N1CCc2ccccc2C1)C(=O)Nc1cccc(Cl)c1 (stereo not drawn),16 µM
17,Fc1ccc(OC2CC(NCc3cccc4cn[nH]c34)C2)cc1C(F)(F)F (stereo not drawn),7.9 µM
18,NC(=O)c1ncc(N[C@@H]2CCCNC2)nc1Nc1cccc(Cl)c1,0.13 µM
19,CC(=O)Nc1nc(-c2cc(C)ccc2C)c(C)s1,> 40 µM (inactive)
20,COc1cccc2sc(CN(C)C(=O)C3CNCCN3c3ccc(F)cc3)c(C)c12 (stereo not drawn),0.16 µM
